According to patent US20050158385A1, “Coating technique for deposition of drug substance on a substrate” (priority 2002, published 2005):

Test: in vitro release (dissolution) of tablets, USP II apparatus
Format: physicochemical
Conditions: tablets from Trial 2 (three strands of PVDF as core), 250 ml 0.1 N HCl, 37° C., paddle 50 rpm
Description: The dimensions of the tablets from both trials were similar, as both trials yielded tablets approximately 3 mm thick. To determine the dose of 2,3:4,5-bis-O-(1-methylethylidene)-β-D-fructopyranose sulfamate in each tablet, the tablet was dissolved in 10 ml H2O/0.1 N HCl 9/1 v/v. The concentration of 2,3:4,5-bis-O-(1-methylethylidene)-β-D-fructopyranose sulfamate was analyzed by HPLC (Waters System with Millenium Software, 2690 Alliance, Waters, Milford, Mass.). A sample of 50 uL is injected into a Zorbax Eclipse (HP, Palo Alto, Calif.) column (XDB-C8, 4.6*150 mm, P/N: 993967.906). The mobile phase consists of H2O/methanol 68/32 w/w at a flow rate of 1.5 mL/min. The concentration was determined with a refractive index detector (Sensitivity 32). The peak retention time is 6.7 minutes and the run takes 14 minutes.
The in vitro release of the tablets made in this example was also determined. Four tablets from Trial 2 were placed in a USP II apparatus (SR8 plus, Hanson, Chatsworth, Calif.) containing 250 ml of 0.1 N HCl at 37° C. and a paddle rotating at 50 rpm. Dissolution was followed up to 1 hour, with samples taken after 5, 15, 30 and 60 minutes. An aliquot of 5 ml was filtered through a PTFE 0.2 micron filter. The sample was not replaced with fresh solvent. The concentration of 2,3:4,5-bis-O-(1-methylethylidene)-β-D-fructopyranose sulfamate was analyzed by HPLC as discussed above.

## CC1(C)O[C@@H]2[C@@H](CO[C@@]3(COS(N)(=O)=O)OC(C)(C)O[C@@H]23)O1 [2,3:4,5-bis-O-(1-methylethylidene)-β-D-fructopyranose sulfamate]
After 5 minutes
  2,3:4,5-bis-O-(1-methylethylidene)-β-D-fructopyranose sulfamate released: approximately 4%
By 15 minutes
  2,3:4,5-bis-O-(1-methylethylidene)-β-D-fructopyranose sulfamate released: about 48%
In 30 minutes
  2,3:4,5-bis-O-(1-methylethylidene)-β-D-fructopyranose sulfamate released: complete release
